Experimental data: patent EP0938338B1, “CARRIER COMPOSITION FOR INFLUENCING THE TIGHT JUNCTION PERMEABILITY” (Ghyssaert, Joris Rosa Michael, priority 1996, dated 1998)
≈ marks a conversion by molar mass, not a printed value.

Experiments:
blood glucose level [1] = test: Rectal perfusion of insulin, blood glucose versus intramuscular injection (set up 1); assay type: in vivo, guinea pigs and rats; conditions: uncoupler added to perfusion, total concentration 0.5 mg
Protocol: The resorption of Insulin has been monitored by the lowering of the blood glucose level versus an intramuscular injection of an equivalent dose. Glucose was monitored while the determination is simple and inexpensive. However, on several experiments the Insulin level was measured by RIA (Radio Immuno Assays) methods.
Initially the resorption of Insulin was monitored following a perfusion on anaesthetised animals. Anaesthesia was induced by abdominal injection of Ethylurethane (0.9 g/kg).
The circulating solution was principally isotonic Sodium chloride (physiological saline) to which the appropriate Insulin was added in order to obtain the required concentrations.
The used Insulin was […]™ (Novo Nordisk); Human Biosynthetic Insulin.
The perfusion itself was executed on a new developed manner in order to allow a perfusion without an operation. Blood was sampled on the jugular vein.
The device used allows an easy rectal application. It allows an exact positioning and an identical length of perfused colon.
The total circulating fluid was 8 ml. As tubing Isoversinic was used. At intervals 50 µl blood was sampled and used for the glucose determinations. These perfusion experiments were carried out on guinea pigs and rats. […]

blood glucose level [2] = test: Hollow suppositories with insulin, blood glucose versus intramuscular injection (set up 2); assay type: in vivo, rabbits; conditions: uncoupler in suppository mass (3 mg, 3 mg, 1.5 mg); insulin in physiological saline
Protocol: Therefore experiments were carried out on rabbits. Male rabbits were immobilised in a metal cage allowing free access to the anal region and the auricular arteries of both ears. In these experiments narcosis was not essential. The sampled blood volume was 0.5 ml.
Small hollow suppositories were made with dimensions ± 2 cm, φ 0.5 cm. The suppositories were filled with […] ™ (Novo Nordisk) 100 I.U./ml in the appropriate dilution with physiological saline. The anal region was secured with adhesive tape.
The following concentrations were used 0.1 I.U./kg body weight, 0.5 I.U./kg body weight, 1.0 I.U./kg body weight.
As the content of the suppository was approximately 0.6 ml, 450 µl (at the highest dose) of the Insulin solution was mixed with 150 µl normal saline.
For these experiments Insulin from bovine pancreas (activity 41.67 µg = 1 I.U.) Fluka was solved in 0.6 ml bidistilled water. The experiment was carried out as outlined above.

paracellular route = test: Blockade by TAP of the 1,8-dihydroxyanthraquinone-increased mucosal permeability (99mTc-EDTA); assay type: in vivo, Guinea pigs; conditions: TAP 80 mM pH 6.0 followed by 99mTc-EDTA; Fig. 4; p < 0.01
Protocol: 2,4,6-Triaminopyrimidine (TAP) was used to block the paracellular way. If the resorption of a non resorbable molecule ^99mTc-EDTA complex was enhanced by the addition of a mitochondrial uncoupler and blocked by TAP, then the route followed by the ^99mTc-EDTA complex was unequivocally identified as the paracellular one.
The same materials and methods were used as described in Example 1. However, instead of ^99mc-EDTA TAP was used followed by ^99mTc-EDTA.
100 mg TAP was solved in bidistilled water. The pH was adjusted to 6.0 with HCl 2 N and completed to 10.0 ml. Final concentration was 80 mM. To obtain a physiological osmolarity 16 mg sodium chloride was added.

colon descendens = test: Temperature increase in ligated colon segment (sample versus reference segment); assay type: in vivo, Guinea pigs
Protocol: While animals are thermally unstable during narcosis special precautions had to be taken to overcome this problem. Guinea pigs (400 g, males) were fasted 12 hours before the experiment. Anaesthesia was induced by intraperitoneal injection of Ethylurethane (0.9 g.kg^-1). The guinea pig was fixed on a thermostated operation table, monitored by a thermosensible detector rectally applied. Heating was carried out by the operation table itself and two lamps located above the animal.
In the evacuated colon descendens two segments were localised. In both segments, later called sample- and reference segment small measuring electrodes were fixed, displaying continuously the absolute temperature until 0.001°C. Two other electrodes linked by a Wheatstone bridge connection were equally located in the two segments. They measure continuously the temperature difference between the two segments.
In both segments a smooth catheter (I.D. 0.3 mm) was fixed, winded several times in the intestinal cavity. In this catheters 100 µl of the reference- and sample solution was injected.
The intestinal cavity was sealed again. This set up enables the injection of solutes at body temperature. The animal was thermally isolated by gauge. After ten minutes, the wheatstone bridge was equilibrated. An injection of 100 µl air evacuates the catheters so injecting the solutions at perfect body temperature.
The electrodes displaying the absolute temperature were calibrated in a thermostatically controlled water bath between 36.0°C and 38.0°C. […] The electrodes measuring the temperature difference were calibrated by two thermostatically controlled water baths with temperature differences between 0.0°C and 2.0°C. The rectal temperature was directly monitored in °C.
• * reference solution: • Krebsolution - TRIS.HCl buffer 0.1 M pH 8.0 (9/1) osmotic pressure equals 0.9 % Sodium Chloride • * Sample solutions : • - Rhein saturated in reference solution.

[3] = tested on: paracellular permeability; test: 99mTc-EDTA transfer from ligated colon segment to kidneys/urine bladder (mucosal permeability); assay type: in vivo, Guinea pigs; conditions: for colonic permeability: 99mTc-EDTA in ligated colon segment, one hour, Fig. 2 / Fig. 3; for transfer from lumen to blood of 99mTc-EDTA: after previous administration of the uncoupler
Protocol: Guinea pigs of either sex (250-280 g) were fed for one week with pelleted food containing 0.1% 1,8 dihydroxyanthraquimone. For this purpose the necessary amount of Anthraquinone was solved in ether and sprayed over the pelleted foods. The ether was evaporated. The calculated daily administration of 1,8 dihydroxyantraquinone was 20 mg.
The animals were fasted 6 hours before the experiment in order to empty the proximal colonic segment.
Anaesthesia was induced by peritoneal injection of ethyl urethane (0.9 g.kg^-1) and body temperature was maintained at 37°C by a thermostatically controlled heated table.
A midventral abdominal incision was made and the large intestine exposed.
In this ligated colon segment 0.25 ml ^99mTcEDTA was injected. Immediately the abdominal cavity was closed.
The biodistribution of the labelled complex was visualised by a γ-camera Pho/GAMMA®HP-Nuclear; Chicago fitted with a low energy ([…]) convergating collimator.
After one hour the guinea pigs were killed with chloroform and both kidneys, the ligated colon segment and the liver were isolated. Urine was collected from the urine bladder using a syringe. The activity of the samples was measured by a Gamma-counter (Berthold, Gamma-sample changer BF 5300) positioned on 140 ± 10 keV.
In order to determine the influence of the salicylic acid and dinitrophenol on mucosal permeability, 0.25 ml of salicylic acid was injected in the ligated colon segment of untreated animals. After an exposure time of 30 minutes the labelled ^99mTc-EDTA-complex was injected. The procedure continued as described for 1,8 dihydroxyantraquinone.
The instant kit method of Eckelman and Richards (J. Nucl. Med. 11, 761(1970)) was modified. 5.0 mg of Na2EDTA and 0.5 mg of snCl2.2H20/ml was filtered through a 0.22 µ membrane filter and conserved in 3 ml vacuum serum tubes. The kits were kept at -20°C.
Prior to the experiment 1 ml sterile eluate of a ^99mTc-generator (Sterow™ 99m Byk-Malincrodt) with an activity of 2-10 µ Ci was added to the thawed kit. After mixing the efficiency of the complex formulation was assessed by paper chromatography (Whatman N° 1) using physiological water and methylethylketone as mobile phase. Detection was made with a Berthold Scanner. More than 98% of the present ^99mTc was complexed.
100 mg salicylic acid or dinitrophenol was solved in bidistilled water. Sodium hydroxide N was added until complete dissolution. pH was adjusted on 8.5. Water was added to a volume of 10 ml. Osmolarity was adjusted (275 mOsm/1) by adding 23 and 14 mg sodium chloride respectively.

large intestine = test: Colon perfusion: secretory effect of rhein (water, sodium, K+) and its antagonism; assay type: in vivo
[4] = Saturation concentration in reference solution; conditions: krebs - tris.hcl buffer, pH 8, aqueous buffer
[5] = tested on: monocellular mucosal layer of the guinea-pig colon; test: ATP content of lyophilised colon mucosa (firefly bioluminescence); assay type: in vivo, Guinea pigs; conditions: 3.76 mg rhein in ligated colonic segment
Protocol: The ATP content was measured in the monocellular mucosal layer of the guinea-pig colon.
Guinea pigs with a weight (mean ± 400 g) were fasted 12 hours before the experiments. Anaesthesia was induced by intraperitoneal injection of Ethylurethane (0.9 g.kg^-1).
The segment was filled with 4.0 ml of the solution to be tested. The intestinal cavity was immediately sealed again. After the experiment the colon segment was removed and submerged in liquid Nitrogen. The gut specimen was transferred to the precooled lyophylisator (-80°C, sample -20°C) and lyophilised during 36 hours. Microscopically, the mono cellular mucosa layer was scraped off. One segment, proceeding this way normally yield 1.5 - 2.0 mg lyophilised mucosa cells. 1.000 mg mucosa was weighted carefully on a microbalans and homogenised with 100.00 mg lactose. The ATP level was measured on 3.000 mg of this mixture.
ATP was measured following the firefly-bioluminescence system on a LKB Wallac 1250, fitted with a 1250 display. […]
For the blank experiment 200 µl Luciferine-Luciferase solution was mixed with 500 µl TRIS-EDTA buffer solution. The light emission was measured following the addition of standard amounts of ATP.
3.000 mg of the mucosa/lactose mixture was suspended in 800 µl TRIS-EDTA buffer solution. […] Known quantities of ATP were added.

isolated mitochondria = test: Generation speed of ATP in isolated mitochondria (Luciferin-Luciferase); assay type: biochemical, Phaseolus aureus; conditions: 20 µl Loperamide HCl (5 mg/80 ml water); increasing concentrations DHA; N=15; Fig. 8
Protocol: Mitochondria were isolated from Phaseolus aureus. Beans were allowed to sprout at 28°C during 5 days in the dark. 40 g sprouts were used.
The plant material was homogenised at 3°C with a solution of 0.3M Mannitol, 1 mM Na2EDTA, 0.1% BSA, 0.05% Cysteine. The pH was adjusted to 7.2
During homogenisation 6 N KOH was added to keep the pH at 7.2.
The suspension was centrifuged at 2°C (2000 x g for 15 minutes). The pellet was removed and the supernatant centrifuged again during 20 minutes (8000 x g). The pellet was carefully resuspended in 1 ml of a solution (reaction medium) with 0.3M Mannitol, 10mM phosphate buffer, 10mM KCl, 5mM MgCl2, 0.1% BSA. The pH was adjusted at 7.2.
Mitochondrial quality was assessed by measuring the formation speed of ATP following a ADP injection. ATP was measured by L-Luciferin-Luciferase light emission in the LKB-Luminometer.
The measurement of ATP was carried out in a medium consisting of a 1/1 mixture of reaction medium and Luciferin-Luciferase buffer. The complex composition is : • 200 µl Luciferin-Luciferase solution • 400 µl TRIS.HCl 0.05 M - EDTA 2 mM pH 7.75 • 400 µl reaction medium as explained above • 20 µl mitochondrial suspension • 10 µl Succinate 10 mM pH 7.7 • 20 µl Loperamide HCl (5 mg/80 ml water) or water depending on the experimental set up 1,8 dihydroxyanthraquinone was used in a concentration of 2 mg/100 ml methanol.

[6] = tested on: junctions of the colonic mucosa; test: Blockade of the paracellular route by anti-diarrhoeal drugs (99mTc-EDTA transfer lumen to blood); assay type: in vivo; conditions: in combination with DHA; Fig. 5
[7] = 100 µl saturated solution in colon segment versus reference segment, Fig. 10

In the case of `COc1ccc2c(c1)c(CC(=O)O)c(C)n2C(=O)c1ccc(Cl)cc1` [Indomethacin], the “Insulin absorption, of the effect obtained after an intramuscular injection” value (blood glucose level [1]) is reported as about 44% and the “blood glucose fall, of the effect obtained after intramuscular injection of an identical dose” value (shortened to “blood glucose fall”) (blood glucose level [2]) is reported as about 50%.
In the case of `Nc1cc(N)nc(N)n1` [TAP, 2,4,6-Triaminopyrimidine], the “mucosal permeability following a 1,8-dihydroxyanthraquinone administration” value (paracellular route) is reported as “nearly completely restored”.
For `O=C(O)c1ccccc1O` [salicylic acid], the “temperature rise” value (colon descendens; other tested mitochondrial uncouplers) was “show the same results”, the colonic permeability [3] was “similar, although less pronounced effect” and the “transfer from lumen to blood of 99mTc-EDTA” value [3] was “significantly enhanced”.
In the case of `CN1CC[C@]23c4c5ccc(O)c4O[C@H]2[C@@H](O)C=C[C@H]3[C@H]1C5` [morphine], the “K+ concentration” value (large intestine; in vivo) is reported as “completely antagonised”, the “effect on the secretory effect of rhein” value (large intestine; in vivo) is reported as “counteracted the secretory effect of rhein” and the “effect on the secretory effect of rhein, prior perfusion” value (large intestine; in vivo) is reported as “protects the large intestine from the secretory effect of rhein”.
With `O=C(O)c1cc(O)c2c(c1)C(=O)c1cccc(O)c1C2=O` [rhein] the “Insulin absorption, of the effect obtained after an intramuscular injection” value (blood glucose level [1]) was about 44%, the “blood glucose fall” value (blood glucose level [2]) was about 50% and the solubility [4] was 0.952 µg/mL (≈ 3.35 µM). For the same compound, the temperature rise (colon descendens; [7]) was 0.36 °C, the “initial ATP concentration recovered” value ([5]; after 60 minutes) was 67.1% and the “initial ATP concentration remaining” value ([5]; after 90 minutes) was 35.9%.
With `O=C1c2cccc(O)c2C(=O)c2c(O)cccc21` [1,8-dihydroxyanthraquinone] the “blood glucose fall” value (blood glucose level [2]) was about 50%, the temperature rise (colon descendens; [7]) was 0.70 °C and the colonic permeability [3] was “remarkable increase of colonic permeability”. For the same compound, the “transfer from lumen to blood of 99mTc-EDTA” value [3] was “significantly enhanced” and the “radioactivity leaked from the colon and concentrated in the urine bladder” value ([3]; one hour after administration of the radioactive complex, 0.1% in food for one week) was about 25%.
For `CN(C)C(=O)C(CCN1CCC(O)(c2ccc(Cl)cc2)CC1)(c1ccccc1)c1ccccc1` [loperamide], the “effect on temperature rise following DHA administration” value (colon descendens; guinea pig, in vivo) was “antagonises the temperature rise”, the “protection against uncoupling effect of DHA on generation speed of ATP” value (isolated mitochondria) was “protects mitochondria in vitro against the uncoupling effect of anthraquinones” and the “transfer of 99mTc-EDTA complex from lumen to blood” value [6] was “no longer transferred from lumen to blood”.
For trigalloylglucose, the “effect on the secretory effect of rhein” value (large intestine; perfused after rhein or together with rhein, Fig. 6, Fig. 7) was “inhibit completely the secretory effect of rhein”.
